The target in this assay is T1, recombinant human CETP (Homo sapiens, UniProt P11597).
T1 construct: made in house; host or cells: CHO cells (protein secreted into conditioned medium)
T1 sequence (P11597 18-493): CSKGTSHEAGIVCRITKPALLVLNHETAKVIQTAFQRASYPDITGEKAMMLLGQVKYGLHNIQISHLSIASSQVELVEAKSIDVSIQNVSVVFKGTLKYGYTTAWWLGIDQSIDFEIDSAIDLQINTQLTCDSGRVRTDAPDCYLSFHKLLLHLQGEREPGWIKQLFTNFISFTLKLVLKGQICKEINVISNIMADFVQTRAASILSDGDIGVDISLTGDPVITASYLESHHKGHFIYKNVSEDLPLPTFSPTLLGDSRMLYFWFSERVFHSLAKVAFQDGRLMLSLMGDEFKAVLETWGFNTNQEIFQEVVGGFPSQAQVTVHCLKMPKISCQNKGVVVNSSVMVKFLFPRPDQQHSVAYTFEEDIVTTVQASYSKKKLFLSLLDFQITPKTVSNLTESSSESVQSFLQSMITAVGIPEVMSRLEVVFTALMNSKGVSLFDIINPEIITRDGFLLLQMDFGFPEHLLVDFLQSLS
The experiment in a line: CETP in vitro fluorometric assay (Roar Biomedical), cholesterol ester transfer from HDL to LDL. It is filed as biochemical. Particulars: recombinant human CETP from CHO cells; 3 hours at 37° C.; fluorescence ex 485 nm / em 535 nm; compound concentrations between 1 nM and 30 μM; read-out: IC50 values for inhibition of CETP. The method, then:
CETP inhibitory activity of compounds of the present invention can be determined in a fluorometric assay puchased from Roar Biomedical, Inc. (New York, N.Y., USA). […] Recombinant human CETP was partially purified from medium conditioned by CETP expressing CHO cells. In a 384 well format 2.5 μl of compound solution in DMSO was combined with 2 μl of donor solution, 2 μl of acceptor solution and 0.8 μl of recombinant human CETP solution in a total volume of 100 μl with assay buffer and incubated for 3 hours at 37° C. The fluorescence intensity was measured at excitation wavelength of 485 nm and emission wavelength of 535 nm. IC50 values are calculated from dose effect curves from compound concentrations between 1 nM and 30 μM.

pIC50: −log10 of the molar value.

As usually defined, the pIC50 is −log10 of the IC50, conventionally taken in molar units.

Turning to `CC(C)c1nc2c(c3c1[C@@H](c1ccc(C(F)(F)F)nc1)OC31CCCC1)[C@@H](O)CC(C)(C)C2` [1(12), (3′R,9′S)-4′-isopropyl-7′,7′-dimethyl-3′-(6-(trifluoromethyl)pyridin-3-yl)-6′,7′,8′,9′-tetrahydro-3′H-spiro[cyclopentane-1,1′-furo[3,4-c]quinolin]-9′-ol], the pIC50 is 6.82.

Consider `CC(=O)O[C@@H]1c2nc(C(C)C)c3c(c2[C@@H](O)CC1(C)C)C1(CCCC1)O[C@@H]3c1ccc(C(F)(F)F)cc1` [1(34), (3′R,6′S,9′S)-9′-hydroxy-4′-isopropyl-7′,7′-dimethyl-3′-(4-(trifluoromethyl)phenyl)-6′,7′,8′,9′-tetrahydro-3′H-spiro[cyclopentane-1,1′-furo[3,4-c]quinoline]-6′-yl acetate], for which the pIC50 was 6.86.

(Values after patent publication US20120053197A1, “TRICYCLIC PYRIDINE DERIVATIVES, MEDICAMENTS CONTAINING SUCH COMPOUNDS, THEIR USE AND PROCESS FOR THEIR PREPARATION” (BOEHRINGER INGELHEIM INTERNATIONAL GMBH, priority 2010, published 2012).)
